The conditions of data set [1]: 101.33 kPa, Liquid; for viscosity: Capillary tube (Ostwald / Ubbelohde) method; for mass density: Vibrating tube method.
A short description of data set [2]: refractive index (Na D-line) (dimensionless). Conditions: 101.33 kPa, Liquid, Standard Abbe refractometry.

The structures appear in SMILES notation. Numbers after ± are expanded uncertainties.

A word on the viscosity: it is the resistance of a fluid to flow. Usually mass density stands for mass per unit of volume. As usually defined, the refractive index is a measure of how strongly the sample bends light. As for `O` [water], the viscosity in data set [1] (298.15 K) was determined as 0.806 ± 0.081 mPa·s; in data set [1] (303.15 K) it was 0.728 ± 0.073 mPa·s; in data set [1] (308.15 K), 0.661 ± 0.066 mPa·s. For the same molecule, the mass density in data set [1] (303.15 K) was determined as 995.4 ± 0.3 kg/m3; in data set [1] (308.15 K) it was 993.7 ± 0.3 kg/m3. Further, the refractive index in data set [2] (298.15 K) was determined as 1.3326 ± 0.0005; in data set [2] (303.15 K), 1.3321 ± 0.0005; in data set [2] (308.15 K), 1.3315 ± 0.0005.
For `OCCCCO` [1,4-butanediol], the results for the viscosity in data set [1] (298.15 K), in data set [1] (303.15 K) and in data set [1] (308.15 K) were 72.33 ± 7.3 mPa·s, 56.43 ± 5.7 mPa·s and 44.11 ± 4.5 mPa·s, respectively. Besides, the results for the mass density in data set [1] (298.15 K), in data set [1] (303.15 K) and in data set [1] (308.15 K) were 1013.9 ± 0.9 kg/m3, 1010.6 ± 0.9 kg/m3 and 1007.5 ± 0.9 kg/m3, respectively.
Consider `OCCCO` [propan-1,3-diol], for which the values for the viscosity in data set [1] (298.15 K), in data set [1] (303.15 K) and in data set [1] (308.15 K) were 41.36 ± 4.2 mPa·s, 32.78 ± 3.3 mPa·s and 27 ± 2.7 mPa·s, respectively. The values for the mass density in data set [1] (298.15 K), in data set [1] (303.15 K) and in data set [1] (308.15 K) were 1049.6 ± 0.9 kg/m3, 1046.2 ± 0.9 kg/m3 and 1043.1 ± 0.9 kg/m3, respectively.
On to `OCCO` [1,2-ethanediol], for which the viscosity in data set [1] (298.15 K) amounted to 16.87 ± 1.7 mPa·s; in data set [1] (303.15 K), 13.59 ± 1.4 mPa·s; in data set [1] (308.15 K), 11.34 ± 1.1 mPa·s. The mass density in data set [1] (303.15 K) is 1106 ± 1.1 kg/m3.

These data come from the NIST ThermoML archive (doi:10.1016/j.jct.2012.11.016).
